Values of other authors as cited in patent publication US20230211112A1, “Method for emergency relief of acute ischemic attacks” (priority 2020, published 2023).

Test system: rats
Details: confined space

SMILES | oxygen consumption reduced compared to the control (average, vs air environment, same initial oxygen concentration) | maximum survival time increased (vs air environment control) | oxygen consumption decreased (vs air environment control) | time of maximum animal survival increased (vs air environment control)
[Ar] [argon] | 27% | 33% | – | –
[Xe] [xenon] | – | – | 3.2 times | 3.5 times
